Assay results: patent US11369665B2, “Anti-inflammatory peptides and composition comprising the same” (GemVax & KAEL Co., Ltd., priority 2012, dated 2022)

Key:
CD40Ligand = assay: qPCR array in THP-1 cells; assay type: cell-based, human; conditions: LPS 10 ng/mL, 4 μM PEP-1, 4 h
Protocol: THP-1 cells (human monocytic leukemia derived cell line) were purchased from ATCC ([…] TYPE CULTURE COLLECTION®, Manassas, Va., USA) and cultured in RPMI-1640 (LIFE TECHNOLOGIES®, Carlsbad, Calif., USA) medium supplemented with 10% FBS (LIFE TECHNOLOGIES®), 1% penicillin/streptomycin (LIFE TECHNOLOGIES®), and 0.05 mM 2-mercaptoethanol (SIGMA-ALDRICH®, St. Louis, Mo., USA) at 37° C. in 5% CO2. THP-1 cells that normally grow in suspension were differentiated into an adherent macrophage-like phenotype in differentiation medium (complete growth medium containing 100 ng/mL phorbol 12-myristate 13-acetate (PMA, SIGMA-ALDRICH®)) for 24 hr. For differentiation, THP-1 cells (3×10^6 cells/plate, ˜95% confluency) were seeded into 10-cm tissue culture plates and incubated in differentiation medium.
Following differentiation, the macrophage-like THP-1 cells were washed twice using complete growth medium. Then, cells were treated with 10 ng/mL lipopolysaccharide (SIGMA-ALDRICH®) and/or 4 μM PEP-1 for 4 h at 37° C.
Total RNA was extracted and purified using RNeasy mini kit from QIAGEN® (Valencia, Calif., USA) following manufacturer's protocol. cDNAs were synthesized by reverse transcription using Reverse Transcription System from PROMEGA CORPORATION® (Madison, Wis., USA) according to the manufacturer's protocol.
Then, cDNA samples from THP-1 cells were used as template for real-time quantitative PCR (qPCR) analysis. For qPCR analysis, RT2 Profiler PCR Array kits were purchased from SABIOSCIENCES®/QIAGEN® (Valencia, Calif. USA). Four different PCR array kits analyzing separate signaling pathways used in the experiment are as follows: human signal transduction pathway finder, human inflammatory cytokines & receptors, human transcription factors, human NF-κB signaling pathway. PCR was performed with SYBR® Green qPCR detection system (QIAGEN®) using a BIO-RAD® (Hercules, Calif., USA) CFX 96 real-time PCR instrument. Thermocycling conditions were: 95° C. for 10 sec; 55° C. for 30 sec; 95° C. for 10 min; 95° C. for 10 sec, 55° C. for 30 sec, and 72° C. for 30 sec for 50 amplification cycles. Data represents the average value from three independent experiments, and % decrease was determined by the target gene expression in LPS treated samples vs. LPS+PEP-1 treated samples. Among 336 genes analyzed, only those showing statistically significant (p<0.05, student's t-test) % decrease were shown in table 7.

cytokines = assay: qRT-PCR of cytokine levels in THP1 cell line; assay type: cell-based, human; conditions: PMA-differentiated THP-1, LPS 10 ng/ml and 4 μM peptide, 4 hr, FIG. 3
Protocol: As a Human acute monocytic leukemia cell line, THP-1 monocyte cell line ([…] TYPE CULTURE COLLECTION® (Manassas, Va., USA) was used to reconfirm the effects of PEP 1. Cells were grown at a density of 0.5-7×10^5 cells/mL in RPMI 1640 containing 10% FBS, 0.05 mM 2-mercaptoethanol, 100 U/ml penicillin, 100 μg/mL streptomycin, and maintained at 37° C. under 5% CO2. THP-1 cells were differentiated into macrophages by treating cells with phorbol myristate acetate (PMA) at 100 ng/mL for 24 hr at 37° C. for 24 hr.
Following differentiation into macrophages, THP-1 cells were washed two times using complete RPMI 1640 (5 min/wash). Then, cells were treated for 4 hr. with 10 ng/ml LPS and/or 4 μM peptide RIA in FBS free RPMI 1640.
Total RNA samples were isolated from peptide-treated THP-1 cells by using Trizol (QIAZOL®) reagent and, and cDNA was synthesized by reverse transcriptase PCR using reverse transcription PCR kit from PROMEGA CORPORATION® following manufacturer's protocol.
Then, real-Time qPCR was performed using CFX96 (BIO-RAD®) instrument with SYBR® Green qPCR system. Primers used in the experiments are found in Table 5. The PCR cycling conditions were 95° C. for 10 min for activation of HotStart DNA Taq Polymerase, followed by 45 cycles of 95° C. for 10 sec. […] All samples were measured in triplicate and differences in gene expression were calculated using the 2-cycle threshold method. […]

neural stem cells [1] = assay: Co-treatment amyloid-β and PEP-1: apoptosis (TUNEL assay); assay type: cell-based, rat; conditions: 20 μM amyloid-β protein, 1 to 100 μM of PEP 1
Protocol: (§1) To determine whether PEP 1 has the effect of suppressing the neurotoxicity caused by amyloid-β protein, 20 μM amyloid-β protein and various concentrations of PEP-1 were co-treated for 48 hours. The cell viability and apoptosis were measured using MMT assay, CCK-8 assay, LDH assay and TUNEL assay, and neural stem cell proliferation by BrdU assay.
To confirm the degree of neuronal stem cells damage, TUNEL assay was performed. […] (Refer to FIG. 12)

reactive oxygen species = assay: Reactive oxygen species by DCF-DA staining in neural stem cells; assay type: cell-based, rat; conditions: 20 μM amyloid-β protein, PEP-1 1 μM, 10 μM, 50 μM
Protocol: The mechanism of action of PEP-1's protective effect on apoptosis by amyloid-β protein was investigated. First, it was investigated whether PEP-1 is capable of minimizing the oxidative damage caused by amyloid-β protein. Change in generation of reactive oxygen species after treatment with amyloid-β protein and PEP-1 was observed by using DCF-DA staining (Molecular Probes, Eugene, Oreg.). In the group in which reactive oxygen species increased due to 20 μM of amyloid-β protein, the increased reactive oxygen species decreased by PEP-1 treatment (1 μM, 10 μM, 50 μM) (Refer to FIG. 13).

neural stem cells [2] = assay: Co-treatment amyloid-β and PEP-1: cell mobility (migration); assay type: cell-based, rat; conditions: 20 μM amyloid-β protein
Description: Cell mobility is a vital matter due to the nature of neural stem cell. […] (Refer to FIG. 11).

[3] = tested on: Bax, GSKβ, Cytochrom-c, caspase-3; assay: Western blot of apoptotic signals in amyloid-β damaged neural stem cells; assay type: cell-based, rat; conditions: 20 μM amyloid beta, PEP-1 1, 10 and 50 μM, FIGS. 15D, 15G-15I
neural stem cells [4] = assay: Co-treatment amyloid-β and PEP-1: viability (MMT and CCK-8 assay); assay type: cell-based, rat; conditions: 20 μM amyloid-β protein, co-treated 48 hours
Protocol: as §1
(Refer to FIG. 8). LDH assay was carried out for assessment of the degree of cell death as another method, and we confirmed that the increase in cell death by amyloid-β decreased by PEP-1, and efficacy was seen starting at 1 μM concentration (Refer to FIG. 9).

EARPALLTSRLRFIPK [PEP-1]
CD40Ligand % Decrease by PEP 1 (LPS + PEP-1/LPS), p < 0.05 (CD40Ligand): ↓18%
cytokines involved in the inflammatory responses (qRT-PCR) (cytokines): decreased noticeably
neuronal stem cell death (TUNEL) (neural stem cells [1]): decreased
reactive oxygen species increased by amyloid-β (reactive oxygen species): decreased
cell mobility decreased by amyloid-β (neural stem cells [2]; FIG. 11): restored
cell mobility compared to control (neural stem cells [2]; PEP-1 10 μM): increased even more
protein expression levels of apoptotic signals Bax, GSKβ, Cytochrom-c, caspase-3 [3]: decreased the protein expression levels
concentration at which protection from amyloid-β neurotoxicity began (neural stem cells [4]): 10 µM
concentration of most effective protection from amyloid-β neurotoxicity (neural stem cells [4]): 100 µM
